Assay results published in patent US20240002343A1, “COMPOUNDS HAVING INHIBITORY EFFECT ON MITOCHONDRIAL HYPERFISSION” (KYUSHU UNIVERSITY, NATIONAL UNIVERSITY CORPORATION, priority 2020, published 2024).

Experiments:
[1] = tested on: cardiomyocytes derived from neonatal rats; experiment: Inhibitory effect on mitochondrial hyperfission by hypoxic stimulation; format: cell-based, rat; details: 0.3 μM, 1 hour preincubation, 18 hours hypoxic environment; compared with cilnidipine positive control
Protocol: A system for evaluating quantitatively the degree of mitochondrial division in cells was constructed. Specifically, cardiomyocytes derived from neonatal rats were cultured under either normoxia (20%) or hypoxia (1%) for 16 hours. Subsequently, the cells were stained with a fluorescent dye (MitoTracker Green FM, Thermo Fisher Scientific) that selectively stains mitochondria. Then, the mitochondria were observed under a fluorescence microscope, and the mitochondrial morphology was quantitatively measured by image analysis.
FIGS. 2(a) and (b) are each a micrograph and an image explaining a method for quantitatively measuring mitochondrial morphology by image analysis. FIG. 2(a) is a representative fluorescence micrograph showing the general morphology of mitochondria. FIG. 2(b) is an image obtained by filtering the photograph in FIG. 2(a) and extracting the shape of the mitochondria. Image analysis was performed based on the image in FIG. 2(b) to quantify the lengths of mitochondrial fragments. For the quantification, in order to classify the mitochondria into vesicle-shaped, intermediate-shaped and tube-shaped, <3.5 μm is set for vesicle-shaped, 3.6 μm<length<4.2 μm is set for intermediate-shaped, and >4.2 μm is set for tube-shaped, respectively, as thresholds.
The system for evaluation constructed in Test Example 1 was used to evaluate the mitochondrial hyperfission inhibitory effects of the compounds prepared in Examples.
Specifically, at first, each compound was added to the culture medium of cardiomyocytes derived from neonatal rats at a final concentration of 0.3 μM, and the mixture was incubated for 1 hour.
Then, each cells were cultured for an additional 18 hours in a hypoxic environment. Subsequently, mitochondria were stained with MitoTracker Green FM (Thermo Fisher Scientific) or anti-pyruvate dehydrogenase antibody (Abcam) and observed under a fluorescence microscope to quantitatively measure the morphology of mitochondria. For comparison, a group involving cilnidipine as a positive control and a group involving dimethyl sulfoxide (DMSO) as a negative control were also prepared.

[2] = tested on: Neonatal rat myocardial cells (NRCM); experiment: Cytoprotective effect against cytotoxicity induced by MeHg and hypotonic stimulation (LDH release assay); format: cell-based; details: 1 μM pretreatment 1 hour; 50 nM MeHg, 50% hypotonic solution, 2 days; compared with cilnidipine
Protocol: Neonatal rat myocardial cells (NRCM) were seeded at 2.0×10^5 cells/ml in Matrigel-coated 96-well plates. The NRCMs were pretreated by incubating for 1 hour at 37° C., 5% CO2 with 1 μM of each compound 16c and cilnidipine as a positive control, 1 hour before hypotonic stimulation. To provide hypotonic stimulation, the NRCMs were incubated in isotonic solutions (100% DMEM) or 50% hypotonic solutions (50% DMEM and 50% water) in the presence or absence of 50 nM MeHg that a non-neurotoxic concentration, at 37° C. and 5% CO2 for 2 days. Two days later, cytotoxicity was measured by an LDH release assay using a cytotoxic LDH assay kit (Dojindo).

calcium channel = experiment: Calcium antagonism (KCl-induced calcium ion influx, Fura 2-AM); format: cell-based, mouse; details: Neuro-2a cells; 0, 1, 10, 100 and 1,000 nM, 30 minutes; potassium chloride 60 mM
Protocol: The compounds prepared in Examples were evaluated for calcium channel blocking activity. Specifically, at first, Neuro-2a cells, mouse-derived neuroblastoma cell line, were cultured in a serum-free medium, and Fura 2-AM (Dojindo Laboratories) that is a calcium ion probe, was added to the medium so that it was taken up by the cells.
Subsequently, after replacing the medium with HEPES buffer (pH 7.4), each compound was each added at final concentrations of 0, 1, 10, 100 and 1,000 nM and the mixtures were incubated for 30 minutes.
Then, depolarization stimulation was applied with potassium chloride (final concentration 60 mM), and the influx of calcium ions into the cells was measured by fluorescence microscopy.
FIGS. 4(a) and (b) are graphs that illustrate the results of measurement of increase in intracellular calcium ion concentration induced by potassium chloride stimulation. Δratio on the vertical axis is expressed by formula (F1) below and represents a value that reflects the intracellular calcium ion concentration.
A ratio=(fluorescence intensity at fluorescence wavelength of 510 nm against an excitation wavelength of 340 nm)/(fluorescence intensity at fluorescence wavelength of 510 nm against an excitation wavelength of 380 nm) Formula (F1)

## COCCOC(=O)C1=C(C)NC(C)=C(C(=O)Nc2cccc(C(=O)OC(C)(C)C)c2)C1c1ccccc1 (stereo not drawn) [Compound 16c, 2-Methoxyethyl 5-((3-(tert-butoxycarbonyl)phenyl)carbamoyl)-2,6-dimethyl-4-phenyl-1,4-dihydropyridine-3-carboxylate]
[1]
  mitochondrial hyperfission inhibitory effect (percentage of cells with vesicle-shaped mitochondria): the same as or more effect of cilnidipine
[2]
  cytoprotective effect against MeHg and hypotonic stimulation (LDH release): cytoprotective effects against MeHg and hypotonic stimulation similar to those of cilnidipine
Calcium channel
  Ca2+ antagonism (increase in intracellular calcium ion concentration induced by potassium chloride stimulation): no Ca2+ antagonism
